Measured values as given in publication PMC11674141, “Antimicrobial activity and synergistic effect of phage-encoded antimicrobial peptides with colistin and outer membrane permeabilizing agents against Acinetobacter baumannii” (PeerJ, 2024).
Where two headings read alike, the source gives them in different places. Where a SMILES comes first, the peptide text is derived from it. Bridges are numbered along the chain shown (N, C = ends). Where no end group is shown, it is not given here. [ ]: non-standard residue; d: D form. The star is where a group is joined. X1 = CC[C@H](C)CCCCC(=O)*; Dab = NCC[C@H](N)C(=O)O

Legend:
A. baumannii ATCC19606 [1] = settings: for MIC alone: ATCC19606, checkerboard, agent alone
A. baumannii ATCC19606 [2] = settings: for Minimum Inhibitory Concentration (MIC): A. baumannii 19606, sensitive
Pseudomonas aeruginosa = settings: P. aeruginosa, sensitive
Staphylococcus aureus = settings: S. aureus, sensitive
[3] = system: twenty biofilm-forming A. baumannii strains; assay: Inhibition of biofilm formation (crystal violet); type: cell-based, Acinetobacter baumannii; design: Percent biofilm forming inhibition: concentration or dose not given beside the values; settings: for average percent inhibition of biofilm formation: twenty A. baumannii strains, peptide at MIC (312.5, 156.25, 156.25 µg/mL), 24 h, crystal violet OD595
Protocol: We determined the ability of peptides to inhibit biofilm formation in twenty biofilm-forming strains using the method described by [Karyne et al. (2020)] with some modifications. Briefly, biofilm-forming strains of A. baumannii were adjusted to an equivalent of the 0.5 McFarland standard in 2× Luria Bertani (LB) broth supplemented with 20% glucose. Then, 50 µL of A. baumannii and 50 µL of peptides were added. […] The plates were incubated overnight at 37 °C. After 24 h of incubation, the culture medium was gently removed, and the wells were washed three times with phosphate-buffered saline. The adherent cells were fixed with absolute methanol for 10 min, stained with 0.4% crystal violet for 15 min, and washed three times with sterile distilled water, then air-dried. The plates were then filled with 250 µL of 33% acetic acid for 15 min. The absorbance at OD595 nm was determined. All experiments were performed in three independent assays, each repeated in triplicate, and the percentage of biofilm reduction was calculated based on treated wells vs. non-treated wells.

HepG2 cell line = assay: MTT cell viability assay; type: cell-based, human; design: key to Mean cell viability (Mean 2; control = 100): % viability relative to control (control = 100%); settings: for IC50 (reduction of viable cells to 50%): 24 h, three independent experiments; for Mean cell viability (Mean 2; control = 100): mean of n = 3
Protocol: We aimed to determine the effects of peptides on cell viability and proliferation in the human hepatocellular carcinoma HepG2 cell line. The MTT assay was performed as described by [Muangpat et al. (2022)] with some modifications. The cells were cultured in Dulbecco’s Modified Eagle Medium (DMEM; Sigma-Aldrich, St. Louis, MO, USA), supplemented with 10% fetal bovine serum (FBS), 100 U/ml penicillin, and 100 μg/ml streptomycin at 37 °C in 5% CO^2 and 95% humidity. The cells were seeded into a 96-well plate at a density of 1 × 10^4 cells/well and allowed to adhere overnight. Then, the cells were exposed for 24 h to various concentrations of peptides. The control cells were cultured in complete DMEM medium containing 0.2% DMSO. After the 24-h incubation period, 20 μL of MTT solution (5 mg/mL in PBS) (Tokyo Chemical Industry Co., Ltd., Tokyo, Japan) was added to each well and incubated for another 2 h at 37 °C. The culture medium was then removed, and formazan crystals formed by viable cells were dissolved in 100 μL of DMSO before measuring the absorbance at 590 nm using a microplate spectrophotometer. The effect of the peptide on cell viability was calculated as a percentage of the control, which was arbitrarily assigned a value of 100% viability. The percentage of cell viability was calculated relative to the control group. The IC₅₀ of the peptides was defined as the concentration that caused a 50% reduction in cell viability compared with the control. The MTT assay was conducted in three independent experiments, each with triplicate wells per condition.

Bacillus subtilis = settings: B. subtilis, sensitive
Klebsiella pneumoniae = settings: K. pneumoniae, sensitive
Escherichia coli = settings: E. coli, sensitive
[4] = peptide concentration 25 (unit not given)
[5] = peptide concentration 50 (unit not given)
[6] = peptide concentration 156.25 (unit not given)
[7] = peptide concentration 300 (unit not given)
[8] = peptide concentration 600 (unit not given)
[9] = peptide concentration 800 (unit not given)
[10] = A. baumannii 19,606, microdilution, MHB, 37 °C overnight, triplicate samples

Compound	Minimum Inhibitory Concentration (MIC) (Pseudomonas aeruginosa) [mg/L]	Minimum Inhibitory Concentration (MIC) (Staphylococcus aureus) [mg/L]	average percent inhibition of biofilm formation [3] [%]	FIC index, peptide plus colistin (A. baumannii ATCC19606 [1]; ATCC19606)	Minimum Inhibitory Concentration (MIC) (MDR-AB, XDR-AB; strain AB003, MDR-AB) [mg/L]	Minimum Inhibitory Concentration (MIC) (MDR-AB, XDR-AB; strain AB183, XDR-AB) [mg/L]	Minimum Inhibitory Concentration (MIC) (MDR-AB, XDR-AB; strain AB329, XDR-AB) [mg/L]	Minimum Inhibitory Concentration (MIC) (MDR-AB, XDR-AB; strain CR89, MDR-AB) [mg/L]	Minimum Inhibitory Concentration (MIC) (A. baumannii ATCC19606 [2]) [mg/L]	MIC values (A. baumannii ATCC19606 [2]; [10]) [µg/mL]	MIC (ATCC19606) (A. baumannii ATCC19606 [2]; A. baumannii ATCC19606) [mg/L]	Minimum Inhibitory Concentration (MIC) (Bacillus subtilis) [mg/L]	Minimum Inhibitory Concentration (MIC) (Klebsiella pneumoniae) [mg/L]	Minimum Inhibitory Concentration (MIC) (Escherichia coli) [mg/L]	other results
CC[C@H](C)CCCCC(=O)N[C@@H](CCN)C(=O)N[C@H](C(=O)N[C@@H](CCN)C(=O)N[C@H]1CCNC(=O)[C@H]([C@@H](C)O)NC(=O)[C@H](CCN)NC(=O)[C@H](CCN)NC(=O)[C@H](CC(C)C)NC(=O)[C@@H](CC(C)C)NC(=O)[C@H](CCN)NC1=O)[C@@H](C)O [Colistin] (X1-[Dab]T[Dab][Dab][Dab][dL]L[Dab][Dab]T; lactam 4-C (inferred); N-terminus assumed)	–	–	–	–	–	–	–	–	–	–	–	–	–	–	MIC alone (A. baumannii ATCC19606 [1]): 2 mg/L; Colistin Resistance MIC (MDR-AB, XDR-AB; strain AB57, XDR-AB / CR-AB): 1 mg/L; Colistin Resistance MIC (MDR-AB, XDR-AB; strain AB59, XDR-AB / CR-AB): 0.5 mg/L; Colistin Resistance MIC (MDR-AB, XDR-AB; strain AB329, XDR-AB / CR-AB): 1 mg/L; Colistin Resistance MIC (MDR-AB, XDR-AB; strain CR65-40, MDR-AB / CR-AB): 8 mg/L; Colistin Resistance MIC (MDR-AB, XDR-AB; strain CR65-43, XDR-AB / CR-AB): 4 mg/L; Colistin Resistance MIC (MDR-AB, XDR-AB; strain CR65-47, MDR-AB / CR-AB): 2 mg/L; Colistin Resistance MIC (MDR-AB, XDR-AB; strain CR65-51, XDR-AB / CR-AB): 2 mg/L; Colistin Resistance MIC (MDR-AB, XDR-AB; strain CR65-55, MDR-AB / CR-AB): 2 mg/L; Colistin Resistance MIC (MDR-AB, XDR-AB; strain CR65-71, MDR-AB / CR-AB): 4 mg/L; Colistin Resistance MIC (MDR-AB, XDR-AB; strain CR65-74, XDR-AB / CR-AB): 2 mg/L; MIC values of outer membrane permeabilizers and colistin (A. baumannii ATCC19606 [2]; A. baumannii 19606, microdilution, triplicate samples): 2 mg/L
KIAIQIAIKGMLNGWFTGVGFRRKR [PE04-2]	312.5	39.06	91.92	0.14	78.12	78.12	156.25	156.25	156.25	156.25	156.25	39.06	312.5	156.25	Percent biofilm forming inhibition ([3]; strain AB57, XDR-AB / CR-AB, 2013): 92.3659%; Percent biofilm forming inhibition ([3]; strain AB263, MDR-AB, 2014): 88.4382%; IC50 (reduction of viable cells to 50%) (HepG2 cell line): 424.1 µg/mL; Mean cell viability (Mean 2; control = 100) (HepG2 cell line; [4]): 90.16; Mean cell viability (Mean 2; control = 100) (HepG2 cell line; [5]): 91.63; Mean cell viability (Mean 2; control = 100) (HepG2 cell line; [6]): 79.64; Mean cell viability (Mean 2; control = 100) (HepG2 cell line; [7]): 71.67; Mean cell viability (Mean 2; control = 100) (HepG2 cell line; [8]): 32.89; Mean cell viability (Mean 2; control = 100) (HepG2 cell line; [9]): 14.6; FICI (A. baumannii ATCC19606 [1]; ATCC19606): 0.25
WNKGRVKGKLEVIPGLTNRRKKEKA [PE02-2]	–	–	–	–	–	–	–	–	–	–	–	–	–	–	MIC (ATCC19606) (A. baumannii ATCC19606 [2]; ATCC19606): 1250 mg/L; MIC values (A. baumannii ATCC19606 [2]; ATCC19606): 1,250 ug/ml
LIAIQIAIKGMLNGWFTGVGFRRKR-NH2 [PE04-1-NH2]	–	–	–	–	–	–	–	–	–	–	–	–	–	–	MIC alone (A. baumannii ATCC19606 [1]): 156.25 mg/L
LIAIQIAIKGMLNGWFTGVGFRRKR [PE04-1]	2500	39.06	58.11	0.19	312.5	156.25	625	312.5	312.5	312.5	312.5	39.06	2500	2500	Percent biofilm forming inhibition ([3]; strain AB23, MDR-AB / CR-AB, 2013): 92.1075%; Percent biofilm forming inhibition ([3]; strain CR65-47, MDR-AB / CR-AB, 2022): 61.4919%; IC50 (reduction of viable cells to 50%) (HepG2 cell line): 1,440 ug/ml
KRQTLADKKERKKFHDGLMLNDNIR [PIN02]	–	–	–	–	–	–	–	–	–	–	–	–	–	–	MIC (ATCC19606) (A. baumannii ATCC19606 [2]; ATCC19606): > 5000 mg/L; MIC values (A. baumannii ATCC19606 [2]; ATCC19606): >5,000 ug/ml
LIAIQIAIKGMLNGWFTGVGFRRKR-NH2 [PE04-1(NH2)]	2500	39.06	75.51	0.19	156.25	156.25	312.5	312.5	156.25	156.25	156.25	19.531	625	156.25	Percent biofilm forming inhibition ([3]; strain AB263, MDR-AB, 2014): 89.6713%; Mean cell viability (Mean 2; control = 100) (HepG2 cell line; [4]): 94.88; Mean cell viability (Mean 2; control = 100) (HepG2 cell line; [5]): 86.43; Mean cell viability (Mean 2; control = 100) (HepG2 cell line; [6]): 81.93; Mean cell viability (Mean 2; control = 100) (HepG2 cell line; [7]): 76.66; Mean cell viability (Mean 2; control = 100) (HepG2 cell line; [8]): 49.65; Mean cell viability (Mean 2; control = 100) (HepG2 cell line; [9]): 28.83
